For 18 molecules, IC50 results are on record in patent US9085603B2, “Progesterone receptor antagonists” (Bayer Intellectual Property GmbH, priority 2010, dated 2015).

This test deals with T1, human progesterone receptor A (Homo sapiens, UniProt P06401).
T1 construct: expressed in transfected cells; host or cells: SK-N-MC human neuroblastoma cells, stably transfected with pRChPR-A-neo and pMMTV-LUC
T1 sequence (P06401 1-769 isoform P06401-2): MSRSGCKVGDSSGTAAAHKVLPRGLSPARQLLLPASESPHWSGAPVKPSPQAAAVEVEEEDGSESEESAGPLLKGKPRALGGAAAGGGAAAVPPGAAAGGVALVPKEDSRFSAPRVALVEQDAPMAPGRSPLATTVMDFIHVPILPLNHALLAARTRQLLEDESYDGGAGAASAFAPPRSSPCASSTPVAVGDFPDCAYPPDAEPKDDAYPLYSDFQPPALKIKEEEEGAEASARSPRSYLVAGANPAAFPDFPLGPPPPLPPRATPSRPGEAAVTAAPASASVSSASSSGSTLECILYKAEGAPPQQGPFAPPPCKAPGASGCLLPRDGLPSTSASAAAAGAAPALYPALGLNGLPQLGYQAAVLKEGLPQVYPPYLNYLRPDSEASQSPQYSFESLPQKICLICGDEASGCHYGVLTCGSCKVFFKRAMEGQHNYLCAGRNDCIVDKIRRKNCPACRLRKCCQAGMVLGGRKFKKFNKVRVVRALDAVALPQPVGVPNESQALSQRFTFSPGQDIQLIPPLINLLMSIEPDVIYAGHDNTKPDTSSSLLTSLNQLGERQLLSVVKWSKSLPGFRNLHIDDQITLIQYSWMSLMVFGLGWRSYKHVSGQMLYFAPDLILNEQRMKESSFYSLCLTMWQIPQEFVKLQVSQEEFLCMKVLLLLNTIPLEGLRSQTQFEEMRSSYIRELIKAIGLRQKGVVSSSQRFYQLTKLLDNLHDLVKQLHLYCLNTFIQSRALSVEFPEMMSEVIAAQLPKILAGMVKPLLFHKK
Kind of test: Progesterone receptor antagonistic effect in stably transfected SK-N-MC cells, MTV-LUC reporter (PR-A). In kind it is cell-based. Conditions: antagonism of 0.1 nmol/l promegestone, luciferase reporter, 24 hours. Here is the method:
Progesterone Receptor Antagonistic Effect in Stable Transfectants of Human Neuroblastoma Cells (SK-N-MC cells) with the Human Progesterone A or Progesterone B Receptor and a MTV-LUC Reporter Construct
SK-N-MC cells (human neuroblastoma cells), which have been stably transfected with plasmids which express the human progesterone receptor B (pRChPR-B-neo) or the human progesterone receptor A (pRChPR-A-neo) and a reporter construct (pMMTV-LUC), were incubated for 24 hours either in the absence (negative control) or in the presence of increasing amounts of the particular test compound (0.01 nmol/l, 0.1 nmol/l, 1 nmol/l, 10 nmol/l, 100 nmol/l and 1 μmol/l) in order to determine the agonistic efficacy. As a positive control of the reporter gene induction, the cells were treated with the synthetic gestagen promegestone (0.01 nmol/l, 0.1 nmol/l, 1 nmol/l, 10 nmol/l, 100 nmol/l and 1 μmol/l). To determine the antagonistic activity, the cells were treated with 0.1 nmol/l of promegestone and additionally with increasing amounts of the particular test compound (0.01 nmol/l, 0.1 nmol/l, 1 nmol/l, 10 nmol/l, 100 nmol/l and 1 μmol/l). The activity of the reporter gene LUC (LUC=luciferase) was determined in the cell lysates and measured as RLU (relative light units). All measurement values are given as percentage efficacy and as EC50 or IC50 concentrations.
Background: In a reporter assay the amount or activity of a reporter protein is the signal.
`CC(=O)Nc1ccc(NCc2ccc([C@H]3C[C@@]4(C)[C@@H](CC[C@@]4(O)C(F)(F)C(F)(F)F)[C@@H]4CCC5=CC(=O)CCC5=C43)cc2)cc1` [Example 38, N-[4-({4-[(11β,17β)-17-Hydroxy-3-oxo-17-(pentafluoroethyl)estra-4,9-dien-11-yl]benzyl}amino)phenyl]acetamide]: it took 0.66 nM to reach half-maximal inhibition (IC50).

Take `C[C@]12C[C@H](c3ccc(CNc4ccc(C(N)=O)cc4)cc3)C3=C4CCC(=O)C=C4CC[C@H]3[C@@H]1CC[C@@]2(O)C(F)(F)C(F)(F)F` [Example 32, 4-({4-[(11β,17β)-17-Hydroxy-3-oxo-17-(pentafluoroethyl)estra-4,9-dien-11-yl]benzyl}amino)benzamide]: the IC50 turned out to be 0.78 nM.

Turning to `C[C@]12C[C@H](c3ccc(CNc4ccccc4C(N)=O)cc3)C3=C4CCC(=O)C=C4CCC3C1CC[C@@]2(O)C(F)(F)C(F)(F)F` (stereo partly drawn) [Example 49, 2-({4-[(11β,17β)-17-Hydroxy-3-oxo-17-(pentafluoroethyl)estra-4,9-dien-11-yl]benzyl}arnino)benzamide], it took 1.29 nM to reach half-maximal inhibition (IC50). With `C[C@]12C[C@H](c3ccc(CN4CCN(c5cnccn5)CC4)cc3)C3=C4CCC(=O)C=C4CC[C@H]3[C@@H]1CC[C@@]2(O)C(F)(F)C(F)(F)F` [Example 35, (11β,17β)-17-Hydroxy-17-(pentafluoroethyl)-11-(4-{[4-(pyrazin-2-yl)piperazin-1-yl]methyl}phenyl)estra-4,9-dien-3-one], the half-maximal inhibitory concentration (IC50) amounted to 0.68 nM. On to `C[C@]12C[C@H](c3ccc(CN4CCN(Cc5ccccn5)CC4)cc3)C3=C4CCC(=O)C=C4CC[C@H]3[C@@H]1CC[C@@]2(O)C(F)(F)C(F)(F)F` [Example 43, (11β,17β)-17-Hydroxy-17-(pentafluoroethyl)-11-(4-{[4-(pyridin-2-ylmethyl)piperazin-1-yl]methyl}phenyl)estra-4,9-dien-3-one], for which inhibition was half-maximal at 2.88 nM (IC50). The value for `C[C@]12C[C@H](c3ccc(CN4CCN(Cc5ccccc5)CC4)cc3)C3=C4CCC(=O)C=C4CCC3C1CC[C@@]2(O)C(F)(F)C(F)(F)F` (stereo partly drawn) [Example 31, (11β,17β)-11-{4-[(4-Benzylpiperazin-1-yl)methyl]phenyl}-17-hydroxy-17-(pentafluoroethyl)estra-4,9-dien-3-one] was 4.52 nM; that for `C[C@]12C[C@H](c3ccc(CN4CCN(c5ccccc5)CC4)cc3)C3=C4CCC(=O)C=C4CC[C@H]3[C@@H]1CC[C@@]2(O)C(F)(F)C(F)(F)F` [Example 25, (11β,17β)-17-Hydroxy-17-(pentafluoroethyl)-11-{4-[(4-phenylpiperazin-1-yl)methyl]phenyl}estra-4,9-dien-3-one] was 3.06 nM.

The molecule `C[C@]12C[C@H](c3ccc(CNc4cccc(S(N)(=O)=O)c4)cc3)C3=C4CCC(=O)C=C4CC[C@H]3[C@@H]1CC[C@@]2(O)C(F)(F)C(F)(F)F` [Example 40, 3-({4-[(11β,17β)-17-Hydroxy-3-oxo-17-(pentafluoroethyl)estra-4,9-dien-11-yl]benzyl}amino)benzenesulphonamide] displayed an IC50 of 0.49 nM. Then `CN(C)CCN1CCN(Cc2ccc([C@H]3C[C@@]4(C)C(CC[C@@]4(O)C(F)(F)C(F)(F)F)C4CCC5=CC(=O)CCC5=C43)cc2)CC1` (stereo partly drawn) [Example 51, (11β,17β)-11-[4-({4-[2-(Dimethylamino)ethyl]piperazin-1-yl}methyl)phenyl]-17-hydroxy-17-(pentafluoroethyl)estra-4,9-dien-3-one], with 64.7 nM; and `C[C@]12C[C@H](c3ccc(CN4CCN(Cc5ccncc5)CC4)cc3)C3=C4CCC(=O)C=C4CC[C@H]3[C@@H]1CC[C@@]2(O)C(F)(F)C(F)(F)F` [Example 37, (11β,17β)-17-Hydroxy-17-(pentafluoroethyl)-11-(4-{[4-(pyridin-4-ylmethyl)piperazin-1-yl]methyl}phenyl)estra-4,9-dien-3-one], with 2.33 nM. The value for `CCN(CC)Cc1ccc([C@H]2C[C@@]3(C)C(CC[C@@]3(O)C(F)(F)C(F)(F)F)C3CCC4=CC(=O)CCC4=C32)cc1` (stereo partly drawn) [Example 24, (11β,17β)-11-{4-[(Diethylamino)methyl]phenyl}-17-hydroxy-17-(pentafluoroethyl)estra-4,9-dien-3-one] was 51 nM; that for `CN(Cc1ccncc1)Cc1ccc([C@H]2C[C@@]3(C)[C@@H](CC[C@@]3(O)C(F)(F)C(F)(F)F)[C@@H]3CCC4=CC(=O)CCC4=C32)cc1` [Example 26, (11β,17β)-17-Hydroxy-11-(4-{[methyl(pyridin-4-ylmethyl)amino]methyl}phenyl)-17-(pentafluoroethyl)estra-4,9-dien-3-one] was 4.65 nM; that for `CN(C)CCN(C)Cc1ccc([C@H]2C[C@@]3(C)C(CC[C@@]3(O)C(F)(F)C(F)(F)F)C3CCC4=CC(=O)CCC4=C32)cc1` (stereo partly drawn) [Example 27, (11β,17β)-11-[4-({[2-(Dimethylamino)ethyl](methyl)amino}methyl)phenyl]-17-hydroxy-17-(pentafluoroethyl)estra-4,9-dien-3-one] was 3.52 nM.

`C[C@]12C[C@H](c3ccc(CNc4cccc(C(N)=O)c4)cc3)C3=C4CCC(=O)C=C4CC[C@H]3[C@@H]1CC[C@@]2(O)C(F)(F)C(F)(F)F` [Example 53, 3-({4-[(11β,17β)-17-Hydroxy-3-oxo-17-(pentafluoroethyl)estra-4,9-dien-11-yl]benzyl}amino)benzamide]: the IC50 was found to be 0.84 nM. Then `C[C@]12C[C@H](c3ccc(CNCc4ccncc4)cc3)C3=C4CCC(=O)C=C4CC[C@H]3[C@@H]1CC[C@@]2(O)C(F)(F)C(F)(F)F` [Example 47, (11β,17β)-17-Hydroxy-17-(pentafluoroethyl)-11-(4-{[(pyridin-4-ylmethyl)amino]methyl}phenyl)estra-4,9-dien-3-one], with 2.71 nM. Regarding `C[C@]12C[C@H](c3ccc(CN4CCc5ccccc5C4)cc3)C3=C4CCC(=O)C=C4CCC3C1CC[C@@]2(O)C(F)(F)C(F)(F)F` (stereo partly drawn) [Example 30, (11β,17β)-11-[4-(3,4-Dihydroisoquinolin-2(1H)-ylmethyl)phenyl]-17-hydroxy-17-(pentafluoroethyl)estra-4,9-dien-3-one], 2.35 nM corresponded to half-maximal inhibition (IC50). Molecule `C[C@]12C[C@H](c3ccc(CN4CCN(c5ccncc5)CC4)cc3)C3=C4CCC(=O)C=C4CC[C@H]3[C@@H]1CC[C@@]2(O)C(F)(F)C(F)(F)F` [Example 50, (11β,17β)-17-Hydroxy-17-(pentafluoroethyl)-11-(4-{[4-(pyridin-4-yl)piperazin-1-yl]methyl}phenyl)estra-4,9-dien-3-one] came in with a half-maximal inhibitory concentration (IC50) of 1.2 nM. The value for `CN(C)C(=O)N1CCN(Cc2ccc([C@H]3C[C@@]4(C)[C@@H](CC[C@@]4(O)C(F)(F)C(F)(F)F)[C@@H]4CCC5=CC(=O)CCC5=C43)cc2)CC1` [Example 42, 4-{4-[(11β,17β)-17-Hydroxy-3-oxo-17-(pentafluoroethyl)estra-4,9-dien-11-yl]benzyl}-N,N-dimethylpiperazine-1-carboxamide] was 0.52 nM.

A word on the IC50: it is the concentration that inhibits the measured activity by half. A low value points to greater potency in that assay.
